Assay [1] deals with Salmonella Choleraesuis. The note with it: mice, 25 mg./kg., multiple dosing, percentage of animals which survive.
Procedure: The test compound is administered using a multiple dosing regimen at a dosage of 25 mg./kg., and using either the oral (PO) or the subcutaneous (SC) route. The inoculum of bacteria varies from one to about ten times the amount needed to kill 100% of the mice, under conditions of the test. At the end of the test, the activity of a compound is assessed by counting the number of survivors among the treated animals and expressing the activity of a compound as the percentage of animals which survive.
A further assay deals with Streptococcus pyogenes. Kind of assay: in vitro antibacterial activity (MIC), two-fold serial dilution in Brain-Heart Infusion broth. As to conditions: read-out: MIC Strep pyogenes.
The test system of a further assay is Escherichia coli. Described as above. As to conditions: read-out: MIC Esch coli.
Assay [2] has as its system Salmonella Choleraesuis. The assay is described as above. The note with it: Salmonella enterica, read-out: MIC Sal. Choleraesuis.
Procedure: (§1) The broth is inoculated with bacteria, and with the quinoxaline 1,4-dioxide or 1,3 -dihydrofuro[3,4-b]quinoxaline 4,9-dioxide, and then it is incubated overnight at 37 ° C., under anaerobic conditions. On the next day, the test is read visually. The minimum inhibitory concentration (MIC) of test compound is the lowest concentration which prevents turbidity, i.e. which prevents growth of the microorganism.

Each structure is given as a SMILES string. Converted amounts (≈) assume the structure as drawn.

Procedure for Escherichia coli: as §1
Procedure for Streptococcus pyogenes: as §1

Consider `COC1(c2ccccc2)OCc2c1[n+]([O-])c1ccccc1[n+]2[O-]` (stereo not shown) [1-Methoxy-1-phenyl-1,3-dihydrofuro[3,4-b]quinoxaline 4,9-Dioxide], for which the “Percentage protection vs. Sal. Choleraesuis, PO” value with Salmonella Choleraesuis [1] turned out to be 30%. Besides, in the assay with Salmonella Choleraesuis [1], the “Percentage protection vs. Sal. Choleraesuis, SC” value is given as 30%. Besides, the values for the MIC in the assay with Streptococcus pyogenes, with Escherichia coli and in the assay with Salmonella Choleraesuis [2] were 25 µg/mL (≈ 80.6 µM), 25 µg/mL (≈ 80.6 µM) and 100 µg/mL (≈ 322 µM), respectively.
Consider `CC(=O)OCc1c(C(=O)c2ccccc2)[n+]([O-])c2ccccc2[n+]1[O-]` [2-Benzoyl-3-acetoxymethylquinoxaline 1,4-Dioxide], for which the “Percentage protection vs. Sal. Choleraesuis, PO” value with Salmonella Choleraesuis [1] amounted to 50%. For the same molecule, in the assay on Salmonella Choleraesuis [1], the “Percentage protection vs. Sal. Choleraesuis, SC” value is on record as 10%. The MIC – broadly, the lowest concentration that inhibits growth of the organism – is 12.5 µg/mL (≈ 36.9 µM) with Streptococcus pyogenes, 12.5 µg/mL (≈ 36.9 µM) in the assay with Escherichia coli and 50 µg/mL (≈ 148 µM) with Salmonella Choleraesuis [2].
As for `CC(=O)SCc1c(C(=O)c2ccccc2)[n+]([O-])c2ccccc2[n+]1[O-]` [2-Benzoyl-3-acetylthiomethylquinoxaline 1,4-Dioxide], the “Percentage protection vs. Sal. Choleraesuis, PO” value in the assay with Salmonella Choleraesuis [1] was 30%. Besides, the “Percentage protection vs. Sal. Choleraesuis, SC” value in the assay with Salmonella Choleraesuis [1] was 20%. In addition, the MIC in the assay with Streptococcus pyogenes, with Escherichia coli and in the assay on Salmonella Choleraesuis [2] was over 200 µg/mL each time.
With `O=C(c1ccccc1)c1c(CO)[n+]([O-])c2ccccc2[n+]1[O-]` [2-Benzoyl-3-hydroxymethylquinoxaline 1,4-Dioxide], in the assay on Salmonella Choleraesuis [1], the “Percentage protection vs. Sal. Choleraesuis, PO” value is reported as 80%. Also, the “Percentage protection vs. Sal. Choleraesuis, SC” value in the assay with Salmonella Choleraesuis [1] is 60%. Besides, the MIC in the assay on Streptococcus pyogenes stood at 0.78 µg/mL (≈ 2.63 µM); in the assay on Escherichia coli it was 1.56 µg/mL (≈ 5.27 µM); in the assay on Salmonella Choleraesuis [2], 6.25 µg/mL (≈ 21.1 µM).
Turning to `CS(=O)(=O)Cc1c(C(=O)c2ccccc2)[n+]([O-])c2ccccc2[n+]1[O-]` [2-Benzoyl-3-methylsulfonylmethylquinoxaline 1,4-Dioxide], the “Percentage protection vs. Sal. Choleraesuis, PO” value in the assay with Salmonella Choleraesuis [1] is recorded as 60%. For the same molecule, the “Percentage protection vs. Sal. Choleraesuis, SC” value with Salmonella Choleraesuis [1] is listed as 30%. Also, the minimal inhibitory concentration (MIC) in the assay on Streptococcus pyogenes turned out to be 12.5 µg/mL (≈ 34.9 µM); in the assay with Escherichia coli it was 25 µg/mL (≈ 69.8 µM); in the assay on Salmonella Choleraesuis [2], 25 µg/mL (≈ 69.8 µM).

Source of the values: patent US4012385A, “Antibacterial quinoxaline 1,4-dioxides” (Pfizer Inc., priority 1975, dated 1977).
